≈ marks a conversion by molar mass, not a printed value. Where “and” joins values, the source holds several entries; their conditions need not be identical. Equal values may be shown once.

Among the test systems are Acinetobacter baumannii; Escherichia coli; Klebsiella pneumoniae; Pseudomonas aeruginosa; Staphylococcus aureus.
Assay in all cases: ≥ marks a high value that may be exact or a test limit, other limits are often not marked, values filed in µg/mL are converted to µM
In assay [1] the test system is Escherichia coli ATCC 25922.
In assay [2] the test system is Staphylococcus aureus NCTC 8325.
Assay [3] relates to Acinetobacter baumannii ATCC 19606.
The subject of assay [4] is Klebsiella pneumoniae ATCC 13883.
Assay [5] concerns Pseudomonas aeruginosa ATCC 27853.
Assay [6] concerns Staphylococcus aureus ATCC 25923.
For assay [7], the system named is Bacillus subtilis KCTC 3068.
Assay [8] has as its system Escherichia coli KCTC 1682.
The test system of assay [9] is Pseudomonas aeruginosa KCTC 1637.
Assay [10] concerns Salmonella typhimurium KCTC 1926.
For assay [11], the system named is Staphylococcus aureus KCTC 1621.
Assay [12] relates to Staphylococcus epidermidis KCTC 1917.
In assay [13] the test system is Salmonella enterica subsp. enterica serovar Typhimurium ATCC 14028.
Assay [14] has as its system Pseudomonas aeruginosa PAO1.
The subject of assay [15] is Staphylococcus aureus USA 300.
The test system of assay [16] is Candida albicans ATCC 2002.
The test system of assay [17] is Pseudomonas aeruginosa CMCCB 10104.

As a reminder, the MIC is the lowest concentration found to suppress growth. High values mean a need for much substance, low ones inhibition by little substance. Regarding `CC[C@H](C)[C@H](NC(=O)CNC(=O)[C@H](CCCCN)NC(=O)[C@H](Cc1ccccc1)NC(=O)[C@@H](NC(=O)[C@H](CCCCN)NC(=O)[C@H](CCCCN)NC(=O)[C@H](CC(C)C)NC(=O)[C@H](C)NC(=O)[C@H](CC(N)=O)NC(=O)[C@H](CC(C)C)NC(=O)CN)C(C)C)C(=O)N[C@@H](Cc1cnc[nH]1)C(=O)N[C@@H](CCC(=O)O)C(=O)N[C@@H](C)C(=O)N[C@H](C(=O)N[C@@H](CCCCN)C(=O)N[C@@H](CC(C)C)C(=O)N[C@H](C(=O)N[C@@H](CC(N)=O)C(=O)N[C@@H](CC(N)=O)C(=O)N[C@@H](Cc1cnc[nH]1)C(=O)N[C@H](C(=O)N[C@@H](CCC(N)=O)C(=O)O)C(C)C)[C@@H](C)CC)[C@@H](C)CC` [GLNALKKVFKGIHEAIKLINNHVQ], the MIC in assay [1] was 20 µM (≈ 53.7 µg/mL); in [2], no less than 80 µM.

In the case of `CC[C@H](C)[C@H](NC(=O)[C@H](CCCCN)NC(=O)[C@H](CC(C)C)NC(=O)[C@H](C)NC(=O)[C@H](CCCCN)NC(=O)[C@H](CC(C)C)NC(=O)[C@H](C)NC(=O)CNC(=O)[C@H](CCCCN)NC(=O)[C@H](C)NC(=O)[C@@H](NC(=O)[C@@H](N)CCCCN)[C@@H](C)CC)C(=O)N[C@@H](C)C(=O)N[C@@H](CCCCN)C(=O)N[C@H](C(=O)N[C@@H](C)C(=O)N[C@@H](CC(C)C)C(=O)N[C@@H](CCCCN)C(=O)N[C@@H](C)C(=O)N[C@@H](CC(C)C)C(N)=O)C(C)C` [KIAKGALKALKIAKVALKAL], the MIC in assay [3] stood at 0.707 µM (≈ 1.45 µg/mL); with Acinetobacter baumannii it was 0.5 µM (≈ 1.02 µg/mL); in assay [1], 0.354 µM (≈ 0.724 µg/mL); in the assay on Escherichia coli it was 4 µM (≈ 8.19 µg/mL); in assay [4], 2 µM (≈ 4.1 µg/mL); with Klebsiella pneumoniae, 4 µM (≈ 8.19 µg/mL). Further, the minimal inhibitory concentration (MIC) was 2 µM (≈ 4.1 µg/mL) in [5], 2.83 µM (≈ 5.79 µg/mL) against Pseudomonas aeruginosa, 11.3 µM (≈ 23.2 µg/mL) in [6] and 5.66 µM (≈ 11.6 µg/mL) against Staphylococcus aureus.

For the compound `CC(C)C[C@H](NC(=O)[C@H](CC(C)C)NC(=O)[C@H](CCCCN)NC(=O)[C@H](CCCCN)NC(=O)[C@H](Cc1c[nH]c2ccccc12)NC(=O)[C@H](CC(C)C)NC(=O)[C@H](CCCCN)NC(=O)[C@H](CCCCN)NC(=O)[C@H](CC(C)C)NC(=O)[C@@H](N)CCCCN)C(=O)N[C@@H](CCCCN)C(N)=O` [KLKKLWKKLLK], the minimum inhibitory concentration (MIC) in assay [7] is 8.77 µM and 17.5 µM.

Regarding `CC(C)C[C@H](NC(=O)[C@H](Cc1ccccc1)NC(=O)[C@H](CCCN=C(N)N)NC(=O)[C@H](CCCCN)NC(=O)[C@H](Cc1c[nH]c2ccccc12)NC(=O)[C@H](CCCN=C(N)N)NC(=O)[C@H](CCC(N)=O)NC(=O)[C@@H](NC(=O)[C@H](Cc1c[nH]c2ccccc12)NC(=O)[C@H](CCCN=C(N)N)NC(=O)[C@H](CCCCN)NC(=O)[C@@H](N)Cc1ccccc1)C(C)C)C(=O)N[C@@H](CCCN=C(N)N)C(N)=O` [FKRWVQRWKRFLR], the minimal inhibitory concentration (MIC) is 2 µM (≈ 3.81 µg/mL) in [7]; 4 µM (≈ 7.62 µg/mL) in assay [8]; 16 µM (≈ 30.5 µg/mL) in assay [9]; 2 µM (≈ 3.81 µg/mL) in [10]; 2 µM (≈ 3.81 µg/mL) in [11]; 4 µM (≈ 7.62 µg/mL) in [12].

As for `CC(C)C[C@H](NC(=O)[C@H](CCCN=C(N)N)NC(=O)[C@H](CCCN=C(N)N)NC(=O)[C@H](C)NC(=O)[C@H](Cc1c[nH]c2ccccc12)NC(=O)CNC(=O)[C@H](CCCN=C(N)N)NC(=O)[C@@H](N)CCCN=C(N)N)C(=O)N[C@@H](C)C(=O)N[C@@H](C)C(=O)N[C@@H](C)C(=O)N[C@@H](Cc1ccc(O)cc1)C(=O)NCC(=O)N[C@@H](CCCN=C(N)N)C(=O)N[C@@H](CCCN=C(N)N)C(N)=O` [RRGWARRLAAAYGRR], the minimal inhibitory concentration (MIC) in assay [3] is 25.4 µM and 30 µM; in [1], 18.1 µM and 30 µM; in [4], 30 µM (≈ 54.5 µg/mL); in assay [13], greater than 30 µM; in [6], greater than 30 µM.

In the case of `CC(C)C[C@H](NC(=O)[C@H](CC(C)C)NC(=O)[C@H](CCCCN)NC(=O)CNC(=O)[C@H](CC(C)C)NC(=O)[C@H](C)NC(=O)[C@H](CO)NC(=O)[C@H](CC(C)C)NC(=O)[C@H](CC(C)C)NC(=O)[C@H](CO)NC(=O)[C@H](CC(C)C)NC(=O)[C@H](CC(C)C)NC(=O)CN)C(N)=O` [GLLSLLSALGKLL], the minimal inhibitory concentration (MIC) in assay [1] is greater than 25 µM; in assay [4], 25 µM (≈ 32.4 µg/mL); in assay [14], greater than 25 µM; in [15], 1.56 µM (≈ 2.02 µg/mL).

In the case of `CC[C@H](C)[C@H](NC(=O)[C@H](Cc1ccccc1)NC(=O)[C@H](CCCN=C(N)N)NC(=O)[C@@H](NC(=O)[C@@H]1CCCN1C(=O)[C@H](CO)NC(=O)[C@H](CC(C)C)NC(=O)[C@H](C)NC(=O)[C@H](C)NC(=O)[C@H](CCCCN)NC(=O)[C@H](CC(N)=O)NC(=O)[C@H](CCSC)NC(=O)CNC(=O)[C@@H](NC(=O)[C@H](CCC(N)=O)NC(=O)[C@H](CC(=O)O)NC(=O)[C@H](C)NC(=O)[C@@H](N)CO)[C@@H](C)O)[C@@H](C)CC)C(=O)N[C@@H](CO)C(=O)N[C@@H](CCCCN)C(=O)N[C@@H](CO)C(=O)N[C@H](C(=O)O)C(C)C` [SADQTGMNKAALSPIRFISKSV], the minimum inhibitory concentration (MIC) in [16] was no less than 86.1 µM; in assay [1], greater than 86.1 µM; in [17], no less than 86.1 µM; in assay [6], greater than 86.1 µM.

As to `CC[C@H](C)[C@H](NC(=O)[C@H](CC(C)C)NC(=O)[C@H](CC(C)C)NC(=O)[C@H](CC(=O)O)NC(=O)[C@H](CCCCN)NC(=O)[C@@H](NC(=O)[C@@H](NC(=O)CNC(=O)[C@H](CC(C)C)NC(=O)[C@@H](NC(=O)CN)C(C)C)[C@@H](C)O)C(C)C)C(=O)NCC(=O)N[C@@H](C)C(=O)NCC(=O)N[C@@H](CCCCN)C(=O)N[C@@H](CO)C(=O)N[C@@H](C)C(=O)N[C@@H](C)C(=O)N[C@@H](CCC(N)=O)C(=O)N[C@@H](CO)C(=O)N[C@H](C(=O)N[C@@H](CC(C)C)C(=O)N[C@@H](CCCCN)C(=O)N[C@H](C(=O)N[C@@H](CC(C)C)C(=O)N[C@@H](CO)C(=O)N[C@H]1CSSC[C@@H](C(=O)O)NC(=O)[C@H](CC(=O)O)NC(=O)[C@H](CC(N)=O)NC(=O)[C@H](CO)NC(=O)[C@H]([C@@H](C)CC)NC(=O)[C@H](CCCCN)NC1=O)[C@@H](C)O)[C@@H](C)O` [GVLGTVKDLLIGAGKSAAQSTLKTLSCKISNDC], the MIC was determined as 1.76 µM (≈ 5.8 µg/mL) in assay [16], 1.76 µM (≈ 5.8 µg/mL) in assay [1], 7.05 µM (≈ 23.2 µg/mL) in [17] and 3.52 µM (≈ 11.6 µg/mL) in assay [6].

As for `CC[C@H](C)[C@H](N)C(=O)N[C@@H](CC(C)C)C(=O)N1CCC[C@H]1C(=O)N[C@@H](Cc1ccccc1)C(=O)N[C@H](C(=O)N[C@@H](C)C(=O)NCC(=O)N[C@H](C(=O)N[C@@H](C)C(=O)N[C@@H](C)C(=O)N[C@@H](CCC(=O)O)C(=O)N[C@@H](CCSC)C(=O)N[C@@H](CCSC)C(=O)N[C@@H](CCC(N)=O)C(=O)N[C@@H](Cc1cnc[nH]1)C(=O)N[C@H](C(=O)N[C@@H](Cc1ccc(O)cc1)C(=O)N[C@H]1CSSC[C@@H](C(=O)O)NC(=O)[C@H](CCCCN)NC(=O)[C@H](CCCCN)NC(=O)[C@H](CO)NC(=O)[C@H](C)NC(=O)[C@H](C)NC1=O)C(C)C)C(C)C)C(C)C` [ILPFVAGVAAEMMQHVYCAASKKC], the minimum inhibitory concentration (MIC) in [16] is 2.26 µM (≈ 5.8 µg/mL); in [1] it was 2.26 µM (≈ 5.8 µg/mL); in assay [17], 4.52 µM (≈ 11.6 µg/mL); in assay [6], 4.52 µM (≈ 11.6 µg/mL).

For the compound `CC[C@H](C)[C@@H]1NC(=O)[C@H](CCCCN)NC(=O)[C@@H](NC(=O)[C@H](CCCCN)NC(=O)[C@H](CC(C)C)NC(=O)[C@H](CC(N)=O)NC(=O)[C@H](CC(=O)O)NC(=O)[C@H](CC(C)C)NC(=O)[C@H](CC(C)C)NC(=O)[C@@H](NC(=O)[C@@H](NC(=O)[C@H](CC(=O)O)NC(=O)[C@H](CCSC)NC(=O)[C@H](CC(N)=O)NC(=O)[C@H](CCCCN)NC(=O)[C@H](C)NC(=O)[C@@H](NC(=O)[C@H](CC(N)=O)NC(=O)[C@H](CCCCN)NC(=O)[C@H](C)NC(=O)[C@@H](NC(=O)[C@H](C)NC(=O)[C@H](CCSC)NC(=O)[C@H](Cc2ccccc2)NC(=O)CN)[C@@H](C)O)C(C)C)C(C)C)[C@@H](C)O)CSSC[C@@H](C(=O)O)NC(=O)[C@H](C)NC(=O)[C@H](CCCCN)NC(=O)[C@H]([C@@H](C)O)NC1=O` [GFMATAKNVAKNMDVTLLDNLKCKITKAC], the MIC worked out at 1.3 µM (≈ 4.1 µg/mL) in [16], 2.61 µM (≈ 8.2 µg/mL) in [1], 1.3 µM (≈ 4.1 µg/mL) in [17] and 1.3 µM (≈ 4.1 µg/mL) in assay [6].

For the origin of these results see DBAASP.
